Test results as given in the supplement of paper PMC10307832.

Tests used:
Assay in all cases: relative viability (nuclei count vs DMSO), 5 days (fraction); higher = more cells survive
Vemurafenib + Lapatinib = compound: CCCS(=O)(=O)Nc1ccc(F)c(C(=O)c2c[nH]c3ncc(-c4ccc(Cl)cc4)cc23)c1F [Vemurafenib] + CS(=O)(=O)CCNCc1ccc(-c2ccc3ncnc(Nc4ccc(OCc5cccc(F)c5)c(Cl)c4)c3c2)o1 [Lapatinib] (partner 2 µM)
In short: (§1)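 Dosing by pin tool came one day after lung cancer cell lines were seeded in 1536-well plates, using either one drug or a fixed anchor-drug dose plus five library-drug doses (not always all listed) in √10 steps. After 5 days, nuclei were counted on 4× images. Relative viability is treated-well nuclei count divided by vehicle-well nuclei count, and values are medians of duplicate plates.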

Alpelisib + Lapatinib = compound: Cc1nc(NC(=O)N2CCC[C@H]2C(N)=O)sc1-c1ccnc(C(C)(C)C(F)(F)F)c1 [Alpelisib] + CS(=O)(=O)CCNCc1ccc(-c2ccc3ncnc(Nc4ccc(OCc5cccc(F)c5)c(Cl)c4)c3c2)o1 [Lapatinib] (partner 2 µM)
In short: as §1

OSI-027 + Pictilisib = compound: COc1cccc2cc(-c3nc([C@H]4CC[C@H](C(=O)O)CC4)n4ncnc(N)c34)[nH]c12 [OSI-027] + CS(=O)(=O)N1CCN(Cc2cc3nc(-c4cccc5[nH]ncc45)nc(N4CCOCC4)c3s2)CC1 [Pictilisib] (partner 1 µM)
In short: as §1

Alpelisib + Foretinib = compound: Cc1nc(NC(=O)N2CCC[C@H]2C(N)=O)sc1-c1ccnc(C(C)(C)C(F)(F)F)c1 [Alpelisib] + COc1cc2c(Oc3ccc(NC(=O)C4(C(=O)Nc5ccc(F)cc5)CC4)cc3F)ccnc2cc1OCCCN1CCOCC1 [Foretinib] (partner 0.25 µM)
In short: as §1

Cell Line	relative viability (Vemurafenib + Lapatinib; first compound 0.03162 µM)	relative viability (Vemurafenib + Lapatinib; first compound 0.1 µM)	relative viability (Vemurafenib + Lapatinib; first compound 0.3162 µM)	relative viability (Vemurafenib + Lapatinib; first compound 1 µM)	relative viability (Alpelisib + Lapatinib; first compound 0.04 µM)	relative viability (Alpelisib + Lapatinib; first compound 0.1265 µM)	relative viability (Alpelisib + Lapatinib; first compound 0.4 µM)	relative viability (Alpelisib + Lapatinib; first compound 1.265 µM)	relative viability (Alpelisib + Lapatinib; first compound 4 µM)	relative viability (OSI-027 + Pictilisib; first compound 0.01 µM)	relative viability (OSI-027 + Pictilisib; first compound 0.03162 µM)	relative viability (OSI-027 + Pictilisib; first compound 0.1 µM)	relative viability (OSI-027 + Pictilisib; first compound 0.3162 µM)	relative viability (OSI-027 + Pictilisib; first compound 1 µM)	relative viability (Alpelisib + Foretinib; first compound 0.04 µM)	relative viability (Alpelisib + Foretinib; first compound 0.1265 µM)	relative viability (Alpelisib + Foretinib; first compound 0.4 µM)	relative viability (Alpelisib + Foretinib; first compound 1.265 µM)	relative viability (Alpelisib + Foretinib; first compound 4 µM)
NCI-H1355	0.962	0.956	0.837	1.08	0.963	0.961	0.985	0.918	0.806	0.436	0.399	0.326	0.271	0.208	0.951	0.926	1.04	0.851	0.77
NCI-H727	0.653	0.772	1.16	0.886	0.831	0.766	0.906	0.578	0.443	0.3	0.247	0.351	0.246	0.319	0.897	0.772	0.771	0.645	0.676
NCI-H2023	0.734	0.812	0.736	0.725	0.717	0.617	0.312	0.58	0.495	0.23	0.229	0.181	0.155	0.0973	0.82	0.844	0.667	0.605	0.527
